Test results: ChEMBL document CHEMBL1201862, “PubChem BioAssay data set” (2004)
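Compound exposure: 48 hours, 5 concentrations, 96-well plates. GI50: concentration for 50% inhibition of growth.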 The source made the active and inactive calls. No stated cut-off is given here; in the data, active = GI50 up to about 1.1 µM and inactive = higher.

How the values were obtained:
Assay in all cases: NCI tumour cell line growth inhibition, 48 h
K562 = tested on: K562
T47D = tested on: T47D
MDA-MB-435 = tested on: MDA-MB-435
HCC 2998 = tested on: HCC 2998
OVCAR-5 = tested on: OVCAR-5
SNB-19 = tested on: SNB-19
A498 = tested on: A498
EKVX = tested on: EKVX
NCI/ADR-RES = tested on: NCI/ADR-RES
RXF 393 = tested on: RXF 393
OVCAR-8 = tested on: OVCAR-8
HOP-92 = tested on: HOP-92
CCRF-CEM = tested on: CCRF-CEM
PC-3 = tested on: PC-3
RPMI-8226 = tested on: RPMI-8226
UO-31 = tested on: UO-31
ACHN = tested on: ACHN
MOLT-4 = tested on: MOLT-4
MDA-N = tested on: MDA-N

Compound: C[C@H]1C2Cc3cc(O)ccc3[C@@]1(C)CCN2CCc1ccc(N)cc1
- GI50 (K562): 22.3 µM (inactive)
- GI50 (T47D): 80.5 µM (inactive)
- GI50 (MDA-MB-435): 17.1 µM (inactive)
- GI50 (HCC 2998): 13.6 µM (inactive)
- GI50 (OVCAR-5): > 100 µM (inactive)
- GI50 (SNB-19): 81.7 µM (inactive)
- GI50 (A498): > 100 µM (inactive)
- GI50 (EKVX): > 100 µM (inactive)
- GI50 (NCI/ADR-RES): 25.7 µM (inactive)
- GI50 (RXF 393): 52.7 µM (inactive)
- GI50 (OVCAR-8): 7.98 µM (inactive)
- GI50 (HOP-92): 1.71 µM (inactive)
- GI50 (CCRF-CEM): 18.5 µM (inactive)
- GI50 (PC-3): 18.8 µM (inactive)
- GI50 (RPMI-8226): 28.4 µM (inactive)
- GI50 (UO-31): 37.2 µM (inactive)
- GI50 (ACHN): 58.1 µM (inactive)
- GI50 (MOLT-4): 23.7 µM (inactive)
- GI50 (MDA-N): 20.7 µM (inactive)

Compound: CC(=O)OCC1OC(n2c(N)c(C#N)c(-c3ccccc3)c(C#N)c2=S)C(OC(C)=O)C(OC(C)=O)C1OC(C)=O (stereo not given)
- GI50 (K562): > 100 µM (inactive)
- GI50 (T47D): > 81.1 µM (inactive)
- GI50 (MDA-MB-435): > 100 µM (inactive)
- GI50 (HCC 2998): > 100 µM (inactive)
- GI50 (OVCAR-5): > 100 µM (inactive)
- GI50 (SNB-19): 19 µM (inactive)
- GI50 (A498): > 64.4 µM (inactive)
- GI50 (EKVX): > 74.3 µM (inactive)
- GI50 (NCI/ADR-RES): > 100 µM (inactive)
- GI50 (RXF 393): 23.2 µM (inactive)
- GI50 (OVCAR-8): 34.9 µM (inactive)
- GI50 (HOP-92): 11.8 µM (inactive)
- GI50 (CCRF-CEM): > 100 µM (inactive)
- GI50 (PC-3): > 100 µM (inactive)
- GI50 (RPMI-8226): > 100 µM (inactive)
- GI50 (UO-31): 45 µM (inactive)
- GI50 (ACHN): > 85.7 µM (inactive)
- GI50 (MOLT-4): > 100 µM (inactive)
- GI50 (MDA-N): > 100 µM (inactive)

Compound: C/C1=C\CC[C@@]2(C)O[C@@H]2C[C@@H]2[C@H](C/C(C)=C/CC1)OC(=O)[C@]21CO1
- GI50 (K562): 34.4 µM (inactive)
- GI50 (T47D): > 100 µM (inactive)
- GI50 (MDA-MB-435): 65.8 µM (inactive)
- GI50 (HCC 2998): 78.9 µM (inactive)
- GI50 (OVCAR-5): > 100 µM (inactive)
- GI50 (SNB-19): > 100 µM (inactive)
- GI50 (A498): > 100 µM (inactive)
- GI50 (EKVX): > 100 µM (inactive)
- GI50 (NCI/ADR-RES): > 100 µM (inactive)
- GI50 (RXF 393): > 100 µM (inactive)
- GI50 (OVCAR-8): > 100 µM (inactive)
- GI50 (HOP-92): > 100 µM (inactive)
- GI50 (CCRF-CEM): 46.2 µM (inactive)
- GI50 (PC-3): > 100 µM (inactive)
- GI50 (RPMI-8226): 51.5 µM (inactive)
- GI50 (UO-31): > 100 µM (inactive)
- GI50 (ACHN): > 100 µM (inactive)
- GI50 (MOLT-4): 22 µM (inactive)
- GI50 (MDA-N): 61.1 µM (inactive)

Compound: CO[C@]12S[C@@H]3CCCC[C@@]31C(C)(C)C(=O)N2c1ccccc1
- GI50 (K562): 29.7 µM (inactive)
- GI50 (T47D): 30.7 µM (inactive)
- GI50 (MDA-MB-435): 33.7 µM (inactive)
- GI50 (HCC 2998): 51.2 µM (inactive)
- GI50 (OVCAR-5): > 100 µM (inactive)
- GI50 (SNB-19): > 100 µM (inactive)
- GI50 (A498): > 100 µM (inactive)
- GI50 (EKVX): 55.7 µM (inactive)
- GI50 (NCI/ADR-RES): 23 µM (inactive)
- GI50 (RXF 393): 49.5 µM (inactive)
- GI50 (OVCAR-8): 30.1 µM (inactive)
- GI50 (HOP-92): 38 µM (inactive)
- GI50 (CCRF-CEM): 13.5 µM (inactive)
- GI50 (PC-3): 23.6 µM (inactive)
- GI50 (RPMI-8226): 24.7 µM (inactive)
- GI50 (UO-31): 91.4 µM (inactive)
- GI50 (ACHN): 37.4 µM (inactive)
- GI50 (MOLT-4): 21.7 µM (inactive)
- GI50 (MDA-N): 42.2 µM (inactive)

Compound: CCOC(=O)NN(C(=O)OCC)C(C(=O)c1ccccc1)N(NC(=O)OCC)C(=O)OCC
- GI50 (K562): > 100 µM (inactive)
- GI50 (T47D): > 100 µM (inactive)
- GI50 (MDA-MB-435): > 100 µM (inactive)
- GI50 (HCC 2998): > 100 µM (inactive)
- GI50 (OVCAR-5): > 100 µM (inactive)
- GI50 (SNB-19): > 100 µM (inactive)
- GI50 (A498): > 100 µM (inactive)
- GI50 (EKVX): > 100 µM (inactive)
- GI50 (NCI/ADR-RES): > 100 µM (inactive)
- GI50 (RXF 393): > 100 µM (inactive)
- GI50 (OVCAR-8): > 100 µM (inactive)
- GI50 (HOP-92): > 100 µM (inactive)
- GI50 (CCRF-CEM): > 100 µM (inactive)
- GI50 (PC-3): > 100 µM (inactive)
- GI50 (RPMI-8226): > 100 µM (inactive)
- GI50 (UO-31): > 100 µM (inactive)
- GI50 (ACHN): > 100 µM (inactive)
- GI50 (MOLT-4): > 100 µM (inactive)
- GI50 (MDA-N): > 100 µM (inactive)

Compound: C/C(=N\NC(N)=S)c1nc2cccnc2[nH]1
- GI50 (K562): 71 µM (inactive)
- GI50 (T47D): 45.1 µM (inactive)
- GI50 (MDA-MB-435): 52.4 µM (inactive)
- GI50 (HCC 2998): > 66.1 µM (inactive)
- GI50 (OVCAR-5): 47.1 µM (inactive)
- GI50 (SNB-19): > 76.7 µM (inactive)
- GI50 (A498): > 100 µM (inactive)
- GI50 (EKVX): 50 µM (inactive)
- GI50 (NCI/ADR-RES): 38.5 µM (inactive)
- GI50 (RXF 393): > 100 µM (inactive)
- GI50 (OVCAR-8): > 67 µM (inactive)
- GI50 (HOP-92): 98.2 µM (inactive)
- GI50 (CCRF-CEM): 31.1 µM (inactive)
- GI50 (PC-3): 81.3 µM (inactive)
- GI50 (RPMI-8226): > 96.6 µM (inactive)
- GI50 (UO-31): 24.9 µM (inactive)
- GI50 (ACHN): 43 µM (inactive)
- GI50 (MOLT-4): 34.8 µM (inactive)
- GI50 (MDA-N): > 100 µM (inactive)

Compound: O=[N+]([O-])c1ccc(-n2nc3ccc4c(no[n+]4[O-])c3[n+]2[O-])c([N+](=O)[O-])c1
- GI50 (K562): 2.14 µM (inactive)
- GI50 (T47D): 2.49 µM (inactive)
- GI50 (MDA-MB-435): 2.71 µM (inactive)
- GI50 (HCC 2998): 3.3 µM (inactive)
- GI50 (OVCAR-5): 6.41 µM (inactive)
- GI50 (SNB-19): 6.24 µM (inactive)
- GI50 (A498): 5.45 µM (inactive)
- GI50 (EKVX): 12.2 µM (inactive)
- GI50 (NCI/ADR-RES): 3.16 µM (inactive)
- GI50 (RXF 393): 3.27 µM (inactive)
- GI50 (OVCAR-8): 2.4 µM (inactive)
- GI50 (HOP-92): 2.96 µM (inactive)
- GI50 (CCRF-CEM): 0.938 µM (active)
- GI50 (PC-3): 8 µM (inactive)
- GI50 (RPMI-8226): 2.29 µM (inactive)
- GI50 (UO-31): 5.27 µM (inactive)
- GI50 (ACHN): 2.45 µM (inactive)
- GI50 (MOLT-4): 1.95 µM (inactive)
- GI50 (MDA-N): 2.08 µM (inactive)

Compound: COC1=CC(=O)C2=C(C[C@@]3(C)C(=C2)C(CO)=CC[C@H]3O)C1=O
- GI50 (K562): 2.57 µM (inactive)
- GI50 (T47D): 24.6 µM (inactive)
- GI50 (MDA-MB-435): 20.7 µM (inactive)
- GI50 (HCC 2998): 36.5 µM (inactive)
- GI50 (OVCAR-5): 27 µM (inactive)
- GI50 (SNB-19): 68.1 µM (inactive)
- GI50 (A498): > 100 µM (inactive)
- GI50 (EKVX): 21.8 µM (inactive)
- GI50 (NCI/ADR-RES): 23.5 µM (inactive)
- GI50 (RXF 393): 16.4 µM (inactive)
- GI50 (OVCAR-8): 18.2 µM (inactive)
- GI50 (HOP-92): 11 µM (inactive)
- GI50 (CCRF-CEM): 4.04 µM (inactive)
- GI50 (PC-3): 28.2 µM (inactive)
- GI50 (RPMI-8226): 18.4 µM (inactive)
- GI50 (UO-31): 20 µM (inactive)
- GI50 (ACHN): 18.2 µM (inactive)
- GI50 (MOLT-4): 0.0975 µM (active)
- GI50 (MDA-N): 19 µM (inactive)

Compound: O=C(CCc1ccc(O)c(O)c1)NCCc1cc(OCc2ccccc2)cc(OCc2ccccc2)c1
- GI50 (K562): 5.92 µM (inactive)
- GI50 (T47D): 16.4 µM (inactive)
- GI50 (MDA-MB-435): 12.2 µM (inactive)
- GI50 (HCC 2998): 9.86 µM (inactive)
- GI50 (OVCAR-5): 13.1 µM (inactive)
- GI50 (SNB-19): 3.71 µM (inactive)
- GI50 (A498): 15.7 µM (inactive)
- GI50 (EKVX): 13.1 µM (inactive)
- GI50 (NCI/ADR-RES): 13.1 µM (inactive)
- GI50 (RXF 393): 10.1 µM (inactive)
- GI50 (OVCAR-8): 13.6 µM (inactive)
- GI50 (HOP-92): 8.87 µM (inactive)
- GI50 (CCRF-CEM): 1.77 µM (inactive)
- GI50 (PC-3): 8.09 µM (inactive)
- GI50 (RPMI-8226): 5.27 µM (inactive)
- GI50 (UO-31): 2.13 µM (inactive)
- GI50 (ACHN): 5.47 µM (inactive)
- GI50 (MOLT-4): 2.52 µM (inactive)
- GI50 (MDA-N): 11 µM (inactive)

Compound: CC1(C)CCC(C)(C)c2cc(C(=O)Nc3ccc(C(=O)O)cc3)ccc21
- GI50 (K562): 22.8 µM (inactive)
- GI50 (T47D): 15.5 µM (inactive)
- GI50 (MDA-MB-435): 16.4 µM (inactive)
- GI50 (HCC 2998): 19.2 µM (inactive)
- GI50 (OVCAR-5): 32.3 µM (inactive)
- GI50 (SNB-19): 26.1 µM (inactive)
- GI50 (A498): 31.7 µM (inactive)
- GI50 (EKVX): 19.5 µM (inactive)
- GI50 (NCI/ADR-RES): 19.9 µM (inactive)
- GI50 (RXF 393): 7.62 µM (inactive)
- GI50 (OVCAR-8): 30.5 µM (inactive)
- GI50 (HOP-92): 27.1 µM (inactive)
- GI50 (CCRF-CEM): 18.2 µM (inactive)
- GI50 (PC-3): 19.9 µM (inactive)
- GI50 (RPMI-8226): 14.5 µM (inactive)
- GI50 (UO-31): 14.9 µM (inactive)
- GI50 (ACHN): 21.5 µM (inactive)
- GI50 (MOLT-4): 24.9 µM (inactive)
- GI50 (MDA-N): 22 µM (inactive)
